This note sets out measurements from US20040171823A1, “Polynucleotides and polypeptides associated with the NF-kappaB pathway” (priority 2003, published 2004).

In the assay the test system is NF-κB activation pathway. The assay is described as follows: Real-time PCR (TaqMan/SYBR Green) of target gene mRNA in LPS-stimulated THP-1 cells with NF-κB pathway inhibitors. Particulars: BMS-345541 10 μM, dexamethasone 100 nM; for MGC20791 expression (mRNA): all time points examined, FIG. 5D; for BCL-6 expression (mRNA): FIG. 5C. The class given is cell-based, human. Here is the method: Poly (A)^+ mRNA was isolated from THP-1 cells that were either unstimulated, or stimulated with 100 ng/ml LPS for two hours in the presence and absence of BMS-205820 (2 uM) using the Fast Track isolation kit (Invitrogen, Carlsbad, Calif.) according to manufacturer's instructions. RNA quality and quantity were evaluated using UV spectrometry and capillary electrophoresis with the RNA 6000 Assay 10 (Agilent). First-strand cDNA was synthesized using the SuperScript™ First-Strand Synthesis System for RT-PCR (Invitrogen) according to manufacturer's instructions.
PCR reactions were performed in a total volume of 40 ul containing master mix (SYBR Green I dye, 50 mM Tris-Cl pH 8.3, 75 mM KCl, DMSO, Rox reference dye, 5 mM MgCl2, 2 mM dNTP, 1 unit Platinum Taq High Fidelity enzyme), 0.5 uM 15 each of forward and reverse gene-specific primers, and cDNA (8 ul of a 1:36 dilution of the first strand reaction mix). For tissue expression analyses, PCR reactions included 2 ul of cDNA derived from the Human Multiple Tissue cDNA panel I and Human Immune System MTC Panel (Clontech, Palo Alto, Calif.). The amplification program consisted of a 10 minute incubation at 95° C., followed by 40 cycles of incubations at 95° C. for 15 seconds, 60° C. for 1 minute. The amplification was followed by melting curve analysis at 60° C. to determine the specificity of the amplification reaction. The data were analyzed using the TaqMan 5700 software with the threshold value set to 0.5. The message levels of GAPDH were used to normalize the amounts of cDNA for each reaction.
PolyA+ mRNA was isolated from THP1 cells that were either unstimulated, stimulated with LPS for 2 hours, or stimulated with LPS for 2 hours in the presence of the peptide BMS-205820 (2 μM). In some experiments, THP-1 cells were stimulated with LPS in the presence of the glucocorticoid dexamethasone (100 nM), and the IKK-2 inhibitor, BMS-345541 (10 μM). RNA quality and quantity were evaluated using UV spectrometry and capillary electrophoresis with the RNA 6000 Assay by Agilent. Five-hundred nanograms of polyA RNA was used for first-strand cDNA synthesis using the SuperScript™ First-Strand Synthesis System for RT-PCR (Life Technologies) following the manufacturer's instructions with 250 ng of random hexamers.
PCR Reactions were performed in a total volume of 40 μl. The master mix contained SYBR Green I Dye, 50 mM Tris-HCl pH8.3, 75 mM KCl, DMSO, Rox reference dye, 5 mM MgCl2, 2 mM dNTP, Platinum Taq High Fidelity (1U/reaction), and 0.5 μM of each primer. The cDNA was diluted 1:36 from the synthesis reaction and eight microliters was used in each PCR reaction. For tissue distribution analyses, two microliters of cDNA from the Human Multiple Tissue and Human Immune System MTC cDNA panels were used as templates. The amplification program consisted of a 10 minute incubation at 95° C. followed by forty cycles of incubations at 95° C. for 15 seconds and 60° C. for 1 minute. […] A negative control without cDNA template was run to assess the overall specificity.
A relative value for the initial target concentration in each reaction was determined using the TaqMan 5700 software. The threshold value was set to 0.5 to obtain cycle threshold values that were used to assign relative message levels for each target. The message levels of GAPDH were determined for each cDNA sample and were used to normalize all other genes tested from the same cDNA sample.
In general terms: Quantitative PCR measures a nucleic acid by following its amplification.

Setting [1] is: THP-1 cells stimulated with LPS.

Regarding `Cc1ccc2nc(NCCN)c3ncc(C)n3c2c1` [BMS-345541], under setting [1], the “MGC20791 expression (mRNA)” value was “significantly inhibited” and the “BCL-6 expression (mRNA)” value is reported as “significantly inhibited”. Besides, under “THP-1 cells stimulated with LPS, all time points, FIG. 5A”, the “Cytokine-Inducible Kinase (CNK) expression (mRNA)” value is given as “potently inhibited”. Moreover, for the setting “THP-1 cells stimulated with LPS, each time point, FIG. 5B”, the “BCL-2 Like 11 expression (mRNA)” value is “significantly inhibited expression at each time point below that detected in resting cells”. Moreover, the “Stat1 expression (mRNA)” value (THP-1 cells, 8 hours post LPS stimulation, FIG. 5E) is on record as “significantly inhibited”.

As to `C[C@@H]1C[C@H]2[C@@H]3CCC4=CC(=O)C=C[C@]4(C)[C@@]3(F)[C@@H](O)C[C@]2(C)[C@@]1(O)C(=O)CO` [dexamethasone], under setting [1], the “MGC20791 expression (mRNA)” value was “failed to inhibit” and the “BCL-6 expression (mRNA)” value is “failed to inhibit”.
